Results taken from ChEMBL document CHEMBL2380240, “Discovery, synthesis, selectivity modulation and DMPK characterization of 5-azaspiro[2.4]heptanes as potent orexin receptor antagonists” (Bioorg Med Chem Lett, 2013).

Assays:
CYP2D6 [1] = molecular target: T1, CYP2D6 (Homo sapiens, UniProt P10635); test: Inhibition of human recombinant CYP2D6 at 3 uM by fluorimetric assay; format: ADME
[2] = molecular target: T2, Orexin receptor type 2 (Homo sapiens) (UniProt O43614); test: Antagonist activity at human recombinant OX2 receptor expressed in HEK293 cells assessed as OXB-stimulated intracellular calcium mobilization by FLIPR assay; format: functional, cell-based
T2 sequence (whole entry): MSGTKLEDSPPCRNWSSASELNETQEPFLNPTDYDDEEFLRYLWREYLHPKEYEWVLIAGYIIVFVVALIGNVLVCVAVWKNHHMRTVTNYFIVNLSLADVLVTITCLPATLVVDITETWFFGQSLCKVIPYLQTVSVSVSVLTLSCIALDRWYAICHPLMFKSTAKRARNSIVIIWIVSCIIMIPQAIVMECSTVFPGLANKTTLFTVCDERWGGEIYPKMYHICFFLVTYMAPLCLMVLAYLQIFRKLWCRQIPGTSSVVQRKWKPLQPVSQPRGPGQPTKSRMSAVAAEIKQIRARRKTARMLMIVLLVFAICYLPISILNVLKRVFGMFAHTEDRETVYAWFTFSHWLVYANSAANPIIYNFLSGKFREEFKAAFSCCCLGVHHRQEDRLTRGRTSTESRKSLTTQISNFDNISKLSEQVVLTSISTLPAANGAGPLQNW

CYP2C19 [3] = molecular target: T3, CYP2C19 (Homo sapiens, UniProt P33261); test: Inhibition of human recombinant CYP2C19 at 3 uM by fluorimetric assay; format: ADME
Cytochrome P450 3A4 [4] = molecular target: T4, Cytochrome P450 3A4 (Homo sapiens, UniProt P08684); test: Inhibition of human recombinant CYP3A4 using BFC as substrate by fluorimetric assay; format: ADME
Cytochrome P450 3A4 [5] = molecular target: T4, Cytochrome P450 3A4; test: Time dependent inhibition of human recombinant CYP3A4 using BFC as substrate incubated for 30 mins prior to substrate addition; format: ADME; conditions: recombinant enzyme, 0.5 h
[6] = Ratio of drug uptake from rat brain to plasma at 1 mg/kg, iv after 1 hr; format: ADME, organism-based; parameters: dose 1 mg/kg, route intravenous; conditions: read-out: BPR
CYP2C9 [7] = molecular target: T5, CYP2C9 (Homo sapiens, UniProt P11712); test: Inhibition of human recombinant CYP2C9 at 3 uM by fluorimetric assay; format: ADME
CYP3A4 [8] = molecular target: T6, CYP3A4 (Homo sapiens, UniProt P08684); test: Inhibition of human recombinant CYP3A4 using DBF as substrate at 3 uM by fluorimetric assay; format: ADME; conditions: recombinant CYP3A4, probe DBF
[9] = Plasma clearance in rat at 1 mg/kg, iv; format: ADME, organism-based; parameters: dose 1 mg/kg, route intravenous
CYP1A2 [10] = molecular target: T7, CYP1A2 (Homo sapiens, UniProt P05177); test: Inhibition of human recombinant CYP1A2 at 3 uM by fluorimetric assay; format: ADME
T7 sequence (P05177 whole entry): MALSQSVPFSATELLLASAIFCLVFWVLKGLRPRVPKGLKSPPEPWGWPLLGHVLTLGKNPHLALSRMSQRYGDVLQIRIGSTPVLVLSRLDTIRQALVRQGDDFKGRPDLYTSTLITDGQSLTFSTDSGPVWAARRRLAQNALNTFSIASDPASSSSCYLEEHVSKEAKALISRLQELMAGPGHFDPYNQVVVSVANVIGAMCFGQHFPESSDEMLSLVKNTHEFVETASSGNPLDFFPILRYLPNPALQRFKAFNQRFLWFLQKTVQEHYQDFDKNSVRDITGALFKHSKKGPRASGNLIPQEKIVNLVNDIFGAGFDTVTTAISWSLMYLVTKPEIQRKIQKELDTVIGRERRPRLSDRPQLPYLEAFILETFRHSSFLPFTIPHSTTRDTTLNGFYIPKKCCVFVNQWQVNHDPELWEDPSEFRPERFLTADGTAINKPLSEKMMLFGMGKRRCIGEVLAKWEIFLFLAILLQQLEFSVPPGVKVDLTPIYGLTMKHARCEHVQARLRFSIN

[11] = Oral bioavailability in rat at 1 mg/kg; format: ADME, organism-based; conditions: in vivo
CYP3A4 [12] = molecular target: T6, CYP3A4; test: Inhibition of human recombinant CYP3A4 using BFC as substrate at 3 uM by fluorimetric assay; format: ADME; conditions: recombinant CYP3A4, probe BFC
[13] = Volume of distribution at steady state in rat; format: ADME, organism-based; conditions: in vivo, read-out: Vdss
[14] = molecular target: T8, Orexin/Hypocretin receptor type 1 (Homo sapiens) (UniProt O43613); test: Antagonist activity at human recombinant OX1 receptor expressed in CHO cells assessed as OXA-stimulated intracellular calcium mobilization by FLIPR assay; format: functional, cell-based
T8 sequence (whole entry): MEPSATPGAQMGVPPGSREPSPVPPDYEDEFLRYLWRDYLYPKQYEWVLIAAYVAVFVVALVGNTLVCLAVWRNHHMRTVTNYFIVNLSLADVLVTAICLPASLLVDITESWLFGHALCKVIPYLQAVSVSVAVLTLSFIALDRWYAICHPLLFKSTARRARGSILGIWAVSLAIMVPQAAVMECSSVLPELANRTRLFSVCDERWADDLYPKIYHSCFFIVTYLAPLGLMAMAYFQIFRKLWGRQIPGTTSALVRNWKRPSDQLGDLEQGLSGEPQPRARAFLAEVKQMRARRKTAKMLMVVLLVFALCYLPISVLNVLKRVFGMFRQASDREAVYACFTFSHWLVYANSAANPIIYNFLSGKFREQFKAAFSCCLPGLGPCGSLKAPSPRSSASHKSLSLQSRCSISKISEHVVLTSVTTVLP

CYP3A4 [15] = molecular target: T6, CYP3A4; test: Inhibition of human recombinant CYP3A4 using DBF as substrate at 1 uM by fluorimetric assay; format: ADME; conditions: recombinant CYP3A4, probe DBF
CYP2D6 [16] = molecular target: T1, CYP2D6; test: Inhibition of human recombinant CYP2D6 at 1 uM by fluorimetric assay; format: ADME
CYP3A4 [17] = molecular target: T6, CYP3A4; test: Inhibition of human recombinant CYP3A4 using BFC as substrate at 1 uM by fluorimetric assay; format: ADME; conditions: recombinant CYP3A4, probe BFC
CYP2C19 [18] = molecular target: T3, CYP2C19; test: Inhibition of human recombinant CYP2C19 at 1 uM by fluorimetric assay; format: ADME
CYP2C9 [19] = molecular target: T5, CYP2C9; test: Inhibition of human recombinant CYP2C9 at 1 uM by fluorimetric assay; format: ADME
CYP1A2 [20] = molecular target: T7, CYP1A2; test: Inhibition of human recombinant CYP1A2 at 1 uM by fluorimetric assay; format: ADME
Homo sapiens = species: Homo sapiens; test: Selectivity ratio for human recombinant OX1 to human recombinant OX2

T5 sequence (P11712 whole entry): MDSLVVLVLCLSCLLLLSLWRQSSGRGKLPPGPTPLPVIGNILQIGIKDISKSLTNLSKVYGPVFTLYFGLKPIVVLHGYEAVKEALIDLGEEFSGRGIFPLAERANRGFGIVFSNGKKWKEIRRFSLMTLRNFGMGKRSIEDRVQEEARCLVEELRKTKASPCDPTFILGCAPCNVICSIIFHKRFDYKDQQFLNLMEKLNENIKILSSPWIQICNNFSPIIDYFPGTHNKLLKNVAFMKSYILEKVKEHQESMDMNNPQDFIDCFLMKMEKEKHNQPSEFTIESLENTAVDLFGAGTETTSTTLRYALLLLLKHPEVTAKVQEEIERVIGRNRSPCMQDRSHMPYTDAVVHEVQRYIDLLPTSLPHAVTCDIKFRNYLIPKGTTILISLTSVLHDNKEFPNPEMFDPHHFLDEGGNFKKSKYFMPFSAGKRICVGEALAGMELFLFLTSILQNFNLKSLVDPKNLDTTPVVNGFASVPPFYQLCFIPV
T1 sequence (P10635 whole entry): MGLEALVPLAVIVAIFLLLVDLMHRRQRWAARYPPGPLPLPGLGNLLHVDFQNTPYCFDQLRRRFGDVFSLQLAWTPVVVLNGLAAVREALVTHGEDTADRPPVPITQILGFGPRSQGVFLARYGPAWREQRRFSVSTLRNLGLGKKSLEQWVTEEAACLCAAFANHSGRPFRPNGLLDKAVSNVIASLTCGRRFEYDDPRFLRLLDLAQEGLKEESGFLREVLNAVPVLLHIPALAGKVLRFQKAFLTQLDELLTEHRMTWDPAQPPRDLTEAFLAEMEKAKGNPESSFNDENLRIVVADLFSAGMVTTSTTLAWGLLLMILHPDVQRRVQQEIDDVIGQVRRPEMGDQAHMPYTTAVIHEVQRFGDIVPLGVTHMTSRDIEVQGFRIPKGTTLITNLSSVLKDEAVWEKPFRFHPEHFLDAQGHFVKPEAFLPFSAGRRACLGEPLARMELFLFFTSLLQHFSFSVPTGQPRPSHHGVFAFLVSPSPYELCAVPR
T3 sequence (P33261 whole entry): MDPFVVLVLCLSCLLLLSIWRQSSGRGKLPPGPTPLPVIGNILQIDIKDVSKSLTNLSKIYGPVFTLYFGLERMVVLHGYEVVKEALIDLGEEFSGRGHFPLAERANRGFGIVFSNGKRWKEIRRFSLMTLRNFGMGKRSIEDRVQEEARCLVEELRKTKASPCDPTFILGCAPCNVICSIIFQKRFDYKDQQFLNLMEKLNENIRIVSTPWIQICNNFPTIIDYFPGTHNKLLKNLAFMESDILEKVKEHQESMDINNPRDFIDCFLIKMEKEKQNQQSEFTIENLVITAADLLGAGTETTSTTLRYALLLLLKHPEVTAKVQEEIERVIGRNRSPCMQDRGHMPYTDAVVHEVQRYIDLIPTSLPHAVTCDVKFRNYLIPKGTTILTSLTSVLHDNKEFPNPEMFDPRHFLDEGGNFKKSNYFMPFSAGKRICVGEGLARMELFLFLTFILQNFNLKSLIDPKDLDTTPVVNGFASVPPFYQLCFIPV
T4 sequence (P08684 whole entry): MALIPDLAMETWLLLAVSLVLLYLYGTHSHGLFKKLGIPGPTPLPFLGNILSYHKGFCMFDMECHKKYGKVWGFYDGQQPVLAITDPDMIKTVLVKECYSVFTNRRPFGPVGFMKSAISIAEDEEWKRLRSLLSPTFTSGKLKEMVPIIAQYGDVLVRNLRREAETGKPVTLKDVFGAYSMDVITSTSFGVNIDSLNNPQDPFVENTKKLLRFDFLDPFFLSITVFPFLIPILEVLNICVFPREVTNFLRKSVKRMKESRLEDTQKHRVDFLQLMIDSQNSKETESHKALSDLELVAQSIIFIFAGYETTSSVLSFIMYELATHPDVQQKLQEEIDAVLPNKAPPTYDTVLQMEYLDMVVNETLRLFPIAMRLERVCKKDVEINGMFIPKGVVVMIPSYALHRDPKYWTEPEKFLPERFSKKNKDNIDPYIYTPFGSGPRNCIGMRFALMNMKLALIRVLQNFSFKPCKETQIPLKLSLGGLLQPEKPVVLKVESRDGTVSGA
T6 sequence (P08684 whole entry): as above

inhibition at 3 µM (CYP2D6 [1]) [%] | pKb [2] | inhibition at 3 µM (CYP2C19 [3]) [%] | IC50 (Cytochrome P450 3A4 [4]) [µM] | inhibition (INH) (Cytochrome P450 3A4 [5]) | Kp at 1 h [6] | inhibition at 3 µM (CYP2C9 [7]) [%] | inhibition at 3 µM (CYP3A4 [8]) [%] | clearance [9] [mL/min/kg] | inhibition at 3 µM (CYP1A2 [10]) [%] | bioavailability [11] [%] | inhibition at 3 µM (CYP3A4 [12]) [%] | Vd [13] [L/kg] | pKb [14] | inhibition at 1 µM (CYP3A4 [15]) [%] | inhibition at 1 µM (CYP2D6 [16]) [%] | inhibition at 1 µM (CYP3A4 [17]) [%] | inhibition at 1 µM (CYP2C19 [18]) [%] | inhibition at 1 µM (CYP2C9 [19]) [%] | inhibition at 1 µM (CYP1A2 [20]) [%] | Structure (SMILES) | further results
< 20 | 8 | < 20 | 64 | Not Active | 0.4 | < 20 | < 20 | 61.3 | < 20 | 11 | < 20 | 4.4 | 8.6 | – | – | – | – | – | – | Cc1ccc(-c2ccccc2)c(C(=O)N2CC3(CC3)C[C@H]2CNc2ccc(C(F)(F)F)cn2)n1 | –
– | 8.6 | – | 7.9 | Active | 0.1 | – | – | 41.4 | – | – | – | 0.7 | 7.5 | < 16 | < 16 | < 16 | < 16 | < 16 | < 16 | Cc1cc(C)nc(NC[C@@H]2CC3(CC3)CN2C(=O)c2nc(C)sc2-c2ccccc2)n1 | –
< 28 | 7.5 | < 28 | > 100 | Active | 0.5 | < 28 | < 28 | 47.5 | < 28 | 33 | < 28 | 2 | 8.4 | – | – | – | – | – | – | Cc1ccc(-c2ncccn2)c(C(=O)N2CC3(CC3)C[C@H]2CNc2ccc(C(F)(F)F)cn2)n1 | –
– | < 5 | – | – | – | 0.03 | – | – | 11 | – | 40 | – | 6.21 | 8.2 | < 53 | < 53 | < 53 | < 53 | < 53 | < 53 | Cc1ccc(-c2ncccn2)c(C(=O)N2CC3(CC3)C[C@H]2CNc2ccc(Cl)cn2)c1 | –
– | 8.1 | – | – | – | – | – | – | – | – | – | – | – | 6 | < 39 | < 39 | < 39 | < 39 | < 39 | < 39 | Cc1ccc(-c2ncccn2)c(C(=O)N2CC3(CC3)C[C@H]2CNc2cc(C(F)(F)F)ccn2)n1 | Selectivity ratio (Homo sapiens): > 100
< 20 | 7.7 | < 20 | > 100 | Active | 0.6 | < 20 | < 20 | 55.2 | < 20 | 20 | < 20 | 3 | 8.4 | < 20 | < 20 | < 20 | < 20 | < 20 | < 20 | Cc1nc(C(=O)N2CC3(CC3)C[C@H]2CNc2ccc(C(F)(F)F)cn2)c(-c2ccccc2)s1 | –
